This note sets out measurements from patent US8871767B2, “2-arylimidazo[1,2-B]pyridazine, 2-phenylimidazo[1,2-A]pyridine, and 2-phenylimidazo[1,2-A]pyrazine derivatives” (Hengrui (USA) Ltd., priority 2010, dated 2014).

For test [1], the system named is Hedgehog pathway activation (GLi-luciferase reporter) in Shh Light II reporter cells. The experiment in a line: Hedgehog pathway activation on Shh Light II reporter cells measured by luciferase activity. It is filed as cell-based. Summed up: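 Shh Light II reporter cells carrying a hedgehog-responsive GLi-luciferase reporter were stimulated either with 500 nM SAG, a direct Smoothened agonist, or with conditioned media containing human Sonic Hedgehog (hShh). Test compounds were evaluated for blocking this pathway activation, quantified by luciferase activity. Cell viability was monitored in parallel with the Celltiter-Blue® assay.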

Test [2] concerns Hedgehog pathway activation on 10T1/2/Smo#3 cells (C3H10T1/2 cells transfected with human Smoothened receptor). The experiment in a line: Hedgehog pathway activation on 10T1/2/Smo#3 cells measured by ALP activity. It is filed as cell-based. The conditions noted are these: Mus musculus, C3H 10T1/2, 10T1/2/Smo#3 cells. Put shortly:
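C3H10T1/2 cells stably expressing human Smoothened were activated with hShh-conditioned medium (10-20%) or 500 nM SAG, with test compounds present. Pathway block read as inhibited ALP activity (4-methylumbelliferyl phosphate fluorescence); viability checked by CellTiter-Blue. IC50 values reported.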

[3] abbreviates: Mus musculus, Shh Light II, hShh activation, read-out: Shh (IC50, inhibition of Hedgehog pathway activation).
Where [4] appears, read: measured by ALP activity, read-out: ALP (IC50, inhibition of Hedgehog pathway activation).
Where [5] appears, read: Mus musculus, Shh Light II, SAG activation (500 nM SAG), read-out: Shh Light II luciferase activity (SAG activation).
Setting [6] is: Mus musculus, Shh Light II, hShh activation, read-out: Shh Light II luciferase activity (hShh activation).
Where [7] appears, read: hShh activation, ALP activity, read-out: 10T1/2/Smo#3 ALP activity (hShh Activation).

Where two headings read alike, the source gives them in different places.

As to `CC(C)CNc1ccc2nc(-c3ccc(C(F)(F)F)c(NC(=O)C(C)(C)C)c3)cn2n1` [Example 302, N-(5-(6-(isobutylamino)imidazo[1,2-b]pyridazin-2-yl)-2-(trifluoromethyl)phenyl)pivalamide], the IC50 amounted to 522 nM in test [1] (setting [3]) and 443 nM in test [2] (setting [4]).
`CCC(CO)Nc1ccc2nc(-c3ccc(C(F)(F)F)c(NC(=O)C(C)(C)C)c3)cn2n1` (stereo not drawn) [Example 303, N-(5-(6-(1-hydroxybutan-2-ylamino)imidazo[1,2-b]pyridazin-2-yl)-2-(trifluoromethyl)phenyl)pivalamide]: the IC50 was 300 to 3000 nM in test [1] (setting [5]); 994 nM in test [1] (setting [3]); 300 to 3000 nM in test [1] (setting [6]); 300 to 3000 nM in test [2] (setting [7]); 783 nM in test [2] (setting [4]).
Consider `CC(C)(C)C(=O)Nc1cc(-c2cn3nc(NCCO)ccc3n2)ccc1C(F)(F)F` [Example 304, N-(5-(6-(2-hydroxyethylamino)imidazo[1,2-b]pyridazin-2-yl)-2-(trifluoromethyl)phenyl)pivalamide], for which the figures for the IC50 in test [1] (setting [3]) and in test [2] (setting [4]) were 559 nM and 393 nM, respectively.
Taken in the same sequence, the figures for `CN1CCC(Oc2ccc3nc(-c4ccc(C(F)(F)F)c(NC(=O)C(C)(C)C)c4)cn3n2)CC1` [Example 305, N-(5-(6-(1-methylpiperidin-4-yloxy)imidazo[1,2-b]pyridazin-2-yl)-2-(trifluoromethyl)phenyl)pivalamide] were 1890 nM and 3500 nM.
For `CC(C)(C)C(=O)Nc1cc(-c2cn3nc(OCCN4CCOCC4)ccc3n2)ccc1C(F)(F)F` [Example 306, N-(5-(6-(2-morpholinoethoxy)imidazo[1,2-b]pyridazin-2-yl)-2-(trifluoromethyl)phenyl)pivalamide], the figures for the IC50 in test [1] (setting [3]) and in test [2] (setting [4]) were 402 nM and 446 nM, respectively.
With `CC1CCCCC1Oc1ccc2nc(-c3ccc(C(F)(F)F)c(NC(=O)C(C)(C)C)c3)cn2n1` (stereo not drawn) [Example 307, N-(5-(6-(2-methylcyclohexyloxy)imidazo[1,2-b]pyridazin-2-yl)-2-(trifluoromethyl)phenyl)pivalamide], the IC50 was 352 nM in test [1] (setting [3]) and 400 nM in test [2] (setting [4]).
Taken in the same sequence, the figures for `C[C@H]1CCCC[C@H]1Oc1ccc2nc(-c3ccc(C(F)(F)F)c(NC(=O)C(C)(C)C)c3)cn2n1` [Example 308, N-(5-(6-((1R,2S)-2-methylcyclohexyloxy)imidazo[1,2-b]pyridazin-2-yl)-2-(trifluoromethyl)phenyl)pivalamide] were 1070 nM and 1200 nM.
As to `CC(C)(C)C(=O)Nc1cc(-c2cn3nc(OCCN4CCCCC4)ccc3n2)ccc1C(F)(F)F` [Example 309, N-(5-(6-(2-(piperidin-1-yl)ethoxy)imidazo[1,2-b]pyridazin-2-yl)-2-(trifluoromethyl)phenyl)pivalamide], the IC50 in test [1] (setting [3]) came to 339 nM; in test [2] (setting [4]), 973 nM.
Taken in the same sequence, the figures for `CC(C)(C)C(=O)Nc1cc(-c2cn3nc(OC4CCOCC4)ccc3n2)ccc1C(F)(F)F` [Example 310, N-(5-(6-(tetrahydro-2H-pyran-4-yloxy)imidazo[1,2-b]pyridazin-2-yl)-2-(trifluoromethyl)phenyl)pivalamide] were 721 nM and 1780 nM.
The corresponding values for `Cc1ccc(-c2nc3ccc(Cl)nn3c2C)cc1NC(=O)C(C)(C)C` [Example 311, N-(5-(6-chloro-3-methylimidazo[1,2-b]pyridazin-2-yl)-2-methylphenyl)pivalamide] are 2080 nM and 2420 nM.
Regarding `Cc1ccc(-c2nc3ccc(-c4ccccc4F)nn3c2C)cc1NC(=O)C(C)(C)C` [Example 312, N-(5-(6-(2-fluorophenyl)-3-methylimidazo[1,2-b]pyridazin-2-yl)-2-methylphenyl)pivalamide], the IC50 in test [1] (setting [3]) is 213 nM; in test [2] (setting [4]) it was 326 nM.
Regarding `Cc1ccc(-c2nc3ccc(N4CCC(O)CC4)nn3c2C)cc1NC(=O)C(C)(C)C` [Example 313, N-(5-(6-(4-hydroxypiperidin-1-yl)-3-methylimidazo[1,2-b]pyridazin-2-yl)-2-methylphenyl)pivalamide], the IC50 in test [1] (setting [5]) is 300 to 3000 nM; in test [1] (setting [3]), 826 nM; in test [1] (setting [6]) it was 300 to 3000 nM; in test [2] (setting [7]), 300 to 3000 nM; in test [2] (setting [4]) it was 636 nM.
Take `C#Cc1ccc(-c2cn3nc(-c4ccccc4F)ccc3n2)cc1NC(=O)C(C)(C)C` [Example 321, N-(2-ethynyl-5-(6-(2-fluorophenyl)imidazo[1,2-b]pyridazin-2-yl)phenyl)pivalamide]: the IC50 is 300 to 3000 nM in test [1] (setting [5]), 323 nM in test [1] (setting [3]), less than 300 nM in test [1] (setting [6]) and 300 to 3000 nM in test [2] (setting [7]).
On to `CC(C)(C)C(=O)Nc1cc(-c2cn3nc(-c4cccnc4Cl)ccc3n2)ccc1C(F)(F)F` [Example 334, N-(5-(6-(2-chloropyridin-3-yl)imidazo[1,2-b]pyridazin-2-yl)-2-(trifluoromethyl)phenyl)pivalamide], for which the values for the IC50 in test [1] (setting [3]) and in test [2] (setting [4]) were 278 nM and 213 nM, respectively.
`CC(C)(C)C(=O)Nc1cc(-c2cn3nc(N4CCC(O)C4)ccc3n2)ccc1C(F)(F)F` (stereo not drawn) [Example 337, N-(5-(6-(3-hydroxypyrrolidin-1-yl)imidazo[1,2-b]pyridazin-2-yl)-2-(trifluoromethyl)phenyl)pivalamide]: the IC50 in test [1] (hShh activation, read-out: Shh (IC50, inhibition of Hedgehog pathway activation)) came to 308 nM; in test [2] (setting [4]), 194 nM.
As for `CC(C)(C)C(=O)Nc1cc(-c2cn3nc(N4CC[C@H](O)C4)ccc3n2)ccc1C(F)(F)F` [Example 340, (S)-N-(5-(6-(3-hydroxypyrrolidin-1-yl)imidazo[1,2-b]pyridazin-2-yl)-2-(trifluoromethyl)phenyl)pivalamide], the IC50 in test [1] (setting [3]) was determined as 115 nM; in test [2] (setting [4]), 114 nM.
The corresponding values for `CC(C)(C)C(=O)Nc1cc(-c2cn3nc(N4CC[C@@H](O)C4)ccc3n2)ccc1C(F)(F)F` [Example 341, (R)-N-(5-(6-(3-hydroxypyrrolidin-1-yl)imidazo[1,2-b]pyridazin-2-yl)-2-(trifluoromethyl)phenyl)pivalamide] are 123 nM and 109 nM.
For `Cc1ccc(-c2cn3nc(N4CC[C@H](O)C4)ccc3n2)cc1NC(=O)C(C)(C)C` [Example 346, (S)-N-(5-(6-(3-hydroxypyrrolidin-1-yl)imidazo[1,2-b]pyridazin-2-yl)-2-methylphenyl)pivalamide], the IC50 in test [1] (setting [5]) was less than 300 nM; in test [1] (setting [3]), 44 nM; in test [1] (setting [6]), less than 300 nM; in test [2] (setting [7]) it was less than 300 nM; in test [2] (setting [4]), 23 nM.
With `Cc1ccc(-c2cn3nc(N4CC[C@@H](O)C4)ccc3n2)cc1NC(=O)C(C)(C)C` [Example 347, (R)-N-(5-(6-(3-hydroxypyrrolidin-1-yl)imidazo[1,2-b]pyridazin-2-yl)-2-methylphenyl)pivalamide], the IC50 in test [1] (setting [3]) is 46 nM; in test [2] (setting [4]) it was 22 nM.
On to `CNC1CCN(c2ccc3nc(-c4ccc(C(F)(F)F)c(NC(=O)C(C)(C)C)c4)cn3n2)C1` (stereo not drawn) [Example 349, N-(5-(6-(3-(methylamino)pyrrolidin-1-yl)imidazo[1,2-b]pyridazin-2-yl)-2-(trifluoromethyl)phenyl)pivalamide], for which the results for the IC50 in test [1] (setting [3]) and in test [2] (setting [4]) were 45 nM and 9 nM, respectively.
As for `CN(C)C1CCN(c2ccc3nc(-c4ccc(C(F)(F)F)c(NC(=O)C(C)(C)C)c4)cn3n2)C1` (stereo not drawn) [Example 350, N-(5-(6-(3-(dimethylamino)pyrrolidin-1-yl)imidazo[1,2-b]pyridazin-2-yl)-2-(trifluoromethyl)phenyl)pivalamide], the IC50 amounted to 65 nM in test [1] (setting [3]) and 28 nM in test [2] (setting [4]).
Taken in the same sequence, the figures for `CC(=O)NC1CCN(c2ccc3nc(-c4ccc(C(F)(F)F)c(NC(=O)C(C)(C)C)c4)cn3n2)C1` (stereo not drawn) [Example 351, N-(5-(6-(3-acetamidopyrrolidin-1-yl)imidazo[1,2-b]pyridazin-2-yl)-2-(trifluoromethyl)phenyl)pivalamide] were 38 nM and 21 nM.
With `CCc1ccc(-c2cn3nc(-c4cccnc4C(F)(F)F)ccc3n2)cc1NC(=O)C(C)(C)C` [Example 352, N-(2-ethyl-5-(6-(2-(trifluoromethyl)pyridin-3-yl)imidazo[1,2-b]pyridazin-2-yl)phenyl)pivalamide], the IC50 in test [1] (setting [5]) is less than 300 nM; in test [1] (setting [3]), 11 nM; in test [1] (setting [6]) it was less than 300 nM; in test [2] (setting [7]) it was less than 300 nM; in test [2] (setting [4]), 14 nM.
In the case of `Cc1ccc(-c2nc3ccc(-c4cccnc4C(F)(F)F)nn3c2C)cc1NC(=O)C(C)(C)C` [Example 353, N-(2-methyl-5-(3-methyl-6-(2-(trifluoromethyl)pyridin-3-yl)imidazo[1,2-b]pyridazin-2-yl)phenyl)pivalamide], the IC50 in test [1] (setting [3]) is 74 nM; in test [2] (setting [4]) it was 56 nM.
The corresponding values for `CC(C)(C)C(=O)Nc1cc(-c2cn3nc(N4CCCC(CO)C4)ccc3n2)ccc1C(F)(F)F` (stereo not drawn) [Example 354, N-(5-(6-(3-(hydroxymethyl)piperidin-1-yl)imidazo[1,2-b]pyridazin-2-yl)-2-(trifluoromethyl)phenyl)pivalamide] are 332 nM and 554 nM.
The corresponding values for `CC(C)(C)C(=O)Nc1cc(-c2cn3nc(N4CCSCC4)ccc3n2)ccc1C(F)(F)F` [Example 355, N-(5-(6-thiomorpholinoimidazo[1,2-b]pyridazin-2-yl)-2-(trifluoromethyl)phenyl)pivalamide] are 142 nM and 240 nM.
